# Read-outs that look alike come from different tables or passages of the source.
# How the values were obtained:
# [1] = tested on: HMLER CD44^high/CD24^low cells; test: IC50 on HMLER CD44high/CD24low cells (breast cancer stem cell model); type: cell-based, human; conditions: mesenchymal state
# From the text: (§1) The inventors also evaluated the biological activity of prodrugs and parent structures against transformed human mammary epithelial HMLER CD44^high/CD24^low cells, a model of human breast cancer stem cells stable in the mesenchymal state, and against control epithelial HMLER CD44^low/CD24^high cells.
# PDAC090T = test: Cell viability (CellTiter-Blue), IC50 on PDAC090T; type: cell-based, human; conditions: 72 h treatment
# Procedure: (§2) Cell viability was evaluated by plating 4000 cells/well in 96-well plates using CellTiter-Blue viability assay according to the manufacturer's protocol. […] CellTiter-Blue reagent (Promega, G8081) was added after 72 h treatment and cells were incubated for 2 h before recording fluorescence intensities (ex. 560 nm; em. 590 nm) using a Perkin Elmer Wallac 1420 Victor2 Microplate Reader.
# PDAC030T = test: Cell viability (CellTiter-Blue), IC50 on PDAC030T; type: cell-based, human; conditions: 72 h treatment
# Procedure: as §2
# MCF10A = test: IC50 on nontumorigenic epithelial breast cell MCF10A; conditions: for toxicity toward nontumorigenic epithelial cells compared with respective parent compound: in words, versus parent compound
# Procedure: as §2
# In addition to the above distinct patient-derived pancreatic ductal adenocarcinoma (PDAC) cell lines, the compounds were also evaluated against nontumorigenic epithelial breast cell MCF10A.
# PDAC053T = test: Cell viability (CellTiter-Blue), IC50 on PDAC053T; type: cell-based, human; conditions: for IC50: PDAC053T, 72 h treatment, CellTiter-Blue
# Procedure: PDAC053T cells were a generous gift from Juan Iovanna (INSERM) and cultured in serum-free ductal medium as published before (Gastroenterology. 2004, 127(1):250-260). Liproxstatin-1 (Sigma Aldrich, Cat #SML1414) was used at a concentration of 1 μM.
# [2] = tested on: HMLER CD44^low/CD24^high cells; test: IC50 on control epithelial HMLER CD44low/CD24high cells; type: cell-based, human
# From the text: as §1
# PDAC085T = test: Cell viability (CellTiter-Blue), IC50 on PDAC085T; type: cell-based, human; conditions: 72 h treatment
# Procedure: as §2
# PDAC211T = test: Cell viability (CellTiter-Blue), IC50 on PDAC211T; type: cell-based, human; conditions: 72 h treatment
# Procedure: as §2
# [3] = MCF10A nontumorigenic epithelial breast cell
Compound,IC50 [1],IC50 (PDAC090T),IC50 (PDAC030T),IC50 (MCF10A; [3]),IC50 (PDAC053T),IC50 [2],IC50 (PDAC085T),IC50 (PDAC211T),IC50 ([1]; Homo sapiens),IC50 (PDAC090T; Homo sapiens),IC50 (PDAC030T; Homo sapiens),"IC50 (MCF10A; Homo sapiens, MCF-10A)",IC50 (PDAC053T; Homo sapiens),IC50 ([2]; Homo sapiens),IC50 (PDAC085T; Homo sapiens),IC50 (PDAC211T; Homo sapiens),toxicity toward nontumorigenic epithelial cells compared with respective parent compound (MCF10A),"potency compared with Nar-AM23 (PDAC053T; PDAC053T cells, in words)"
"C#CCN[C@@H]1C=C[C@]2(O[C@H]([C@@H](CC)C(=O)[C@@H](C)[C@@H](O)[C@H](C)C3O[C@@H](C(CC)C(=O)OC)CC[C@@H]3C)[C@@H](C)C[C@H]2C)O[C@@]12CC[C@@](C)([C@H]1CC[C@](O)(CC)[C@H](C)O1)O2 (some centres unmarked) [AM9, C1 Methyl Ester of Ironomycin, reference compound]",13200 nM,5890 nM,5670 nM,12200 nM,7460 nM,15200 nM,8880 nM,5010 nM,–,–,–,–,–,–,–,–,–,–
"C[C@H]1[C@@H](O)O[C@@H]2O[C@@]3(C)CC[C@H]4[C@H](C)CC[C@@H]1[C@@]24OO3 [DHA, dihydroartemisinin, reference compound]",–,–,–,–,–,–,–,–,2850 nM,35400 nM,8080 nM,5450 nM,> 50000 nM,14200 nM,21600 nM,10300 nM,–,–
"C#CCN[C@@H]1C=C[C@]2(O[C@H]([C@@H](CC)C(=O)[C@@H](C)[C@@H](O)[C@H](C)[C@@H]3O[C@@H]([C@@H](CC)C(=O)O)CC[C@@H]3C)[C@@H](C)C[C@H]2C)O[C@@]12CC[C@@](C)([C@H]1CC[C@](O)(CC)[C@H](C)O1)O2 [Ironomycin, reference compound]",160 nM,630 nM,2670 nM,120 nM,2600 nM,1790 nM,720 nM,180 nM,–,–,–,–,–,–,–,–,–,–
"CC[C@@H](C(=O)[C@@H](C)[C@@H](O)[C@H](C)[C@@H]1O[C@@H]([C@@H](CC)C(=O)OC2O[C@@H]3O[C@]4(C)CC[C@H]5[C@H](C)CC[C@@H]([C@H]2C)[C@@]35OO4)CC[C@@H]1C)[C@H]1O[C@]2(C=C[C@@H](O)[C@]3(CC[C@@](C)([C@H]4CC[C@](O)(CC)[C@H](C)O4)O3)O2)[C@H](C)C[C@@H]1C (some centres unmarked) [MA-I-023, Salinomycin-dihydroartemisinin prodrug]",–,–,–,–,–,–,–,–,480 nM,4530 nM,750 nM,–,3880 nM,820 nM,3320 nM,3130 nM,–,–
"C#CCN[C@@H]1C=C[C@]2(O[C@H]([C@@H](CC)C(=O)[C@@H](C)[C@@H](O)[C@H](C)[C@@H]3O[C@@H]([C@@H](CC)C(=O)OC4O[C@@H]5O[C@]6(C)CC[C@H]7[C@H](C)CC[C@@H]([C@H]4C)[C@@]57OO6)CC[C@@H]3C)[C@@H](C)C[C@H]2C)O[C@@]12CC[C@@](C)([C@H]1CC[C@](O)(CC)[C@H](C)O1)O2 (some centres unmarked) [MA-I-062, Ironomycin-dihydroartemisinin prodrug]",–,–,–,–,–,–,–,–,160 nM,2190 nM,500 nM,2030 nM,1790 nM,480 nM,1170 nM,100 nM,less toxic,–
"CC[C@@H](C(=O)OC1O[C@@H]2O[C@]3(C)CC[C@H]4[C@H](C)CC[C@@H]([C@H]1C)[C@@]24OO3)[C@@H]1O[C@@H]([C@@H](C)[C@H](O)[C@H](C)C(=O)[C@H](CC)[C@H]2O[C@]3(C=C[C@@H](O)[C@]4(CC[C@@](C)([C@H]5CC[C@](O)(CC)[C@H](C)O5)O4)O3)[C@H](C)C[C@@H]2C)[C@@H](C)C[C@@H]1C (some centres unmarked) [MA-I-081, narasin-dihydroartemisinin prodrug]",–,–,–,–,–,–,–,–,190 nM,740 nM,90 nM,–,540 nM,500 nM,440 nM,450 nM,–,–
"CC[C@@H](C(=O)OC1O[C@@H]2O[C@]3(C)CC[C@H]4[C@H](C)CC[C@@H]([C@H]1C)[C@@]24OO3)[C@@H]1O[C@@H]([C@@H](C)[C@H](O)[C@H](C)C(=O)[C@H](CC)[C@H]2O[C@]3(C=C[C@@H](NC4CC4)[C@]4(CC[C@@](C)([C@H]5CC[C@](O)(CC)[C@H](C)O5)O4)O3)[C@H](C)C[C@@H]2C)[C@@H](C)C[C@@H]1C (some centres unmarked) [MA-I-095, C20-cyclopropylaminonarasin-dihydroartemisinin prodrug]",–,–,–,–,–,–,–,–,760 nM,180 nM,120 nM,5240 nM,90 nM,1960 nM,70 nM,490 nM,less toxic,more potent
C#CCN[C@H]1C=C[C@]2(O[C@H]([C@@H](CC)C(=O)[C@@H](C)[C@@H](O)[C@H](C)[C@@H]3O[C@@H]([C@@H](CC)C(=O)OC4O[C@@H]5O[C@]6(C)CC[C@H]7[C@H](C)CC[C@@H]([C@H]4C)[C@@]57OO6)CC[C@@H]3C)[C@@H](C)C[C@H]2C)O[C@@]12CC[C@@](C)([C@H]1CC[C@](O)(CC)[C@H](C)O1)O2 (some centres unmarked) [MA-I-096],–,–,–,–,–,–,–,–,200 nM,690 nM,90 nM,1370 nM,520 nM,360 nM,360 nM,330 nM,–,–
CC[C@@H](C(=O)O)[C@@H]1O[C@@H]([C@@H](C)[C@H](O)[C@H](C)C(=O)[C@H](CC)[C@H]2O[C@]3(C=C[C@@H](O)[C@]4(CC[C@@](C)([C@H]5CC[C@](O)(CC)[C@H](C)O5)O4)O3)[C@H](C)C[C@@H]2C)[C@@H](C)C[C@@H]1C [Narasin],–,–,–,–,–,–,–,–,450 nM,1160 nM,1180 nM,790 nM,2000 nM,2960 nM,500 nM,730 nM,–,–
CC[C@@H](C(=O)[C@@H](C)[C@@H](O)[C@H](C)[C@@H]1O[C@@H]([C@@H](CC)C(=O)O)CC[C@@H]1C)[C@H]1O[C@]2(C=C[C@@H](O)[C@]3(CC[C@@](C)([C@H]4CC[C@](O)(CC)[C@H](C)O4)O3)O2)[C@H](C)C[C@@H]1C [Salinomycin],–,–,–,–,–,–,–,–,1380 nM,2660 nM,1610 nM,1130 nM,4500 nM,4360 nM,1560 nM,1290 nM,–,–
"C20-cyclopropylaminosalinomycin [AM23, reference compound]",10 nM,210 nM,110 nM,300 nM,830 nM,500 nM,360 nM,40 nM,–,–,–,–,–,–,–,–,–,–
C20-cyclopropyloaminonarasin [Nar-AM23],10 nM,320 nM,60 nM,100 nM,200 nM,450 nM,40 nM,50 nM,–,–,–,–,–,–,–,–,–,–
C20-epi-ironomycin [Epi-AM5],1800 nM,4160 nM,2870 nM,1340 nM,2170 nM,11800 nM,670 nM,1480 nM,–,–,–,–,–,–,–,–,–,–
C20-propargyloaminonarasin [Nar-AM5],110 nM,800 nM,220 nM,220 nM,880 nM,1080 nM,120 nM,220 nM,–,–,–,–,–,–,–,–,–,–
